Results reported in PMC10419307, “The Effect of Metal Ions (Fe, Co, Ni, and Cu) on the Molecular-Structural, Protein Binding, and Cytotoxic Properties of Metal Pyridoxal-Thiosemicarbazone Complexes” (International Journal of Molecular Sciences, 2023).
Like-named read-outs stand apart in the source and are kept apart here.

Columns and labels:
[1] = target: T1, bovine serum albumin (BSA) (Bos taurus, UniProt P02769); experiment: Spectrofluorometric titration, binding to BSA; conditions: for ΔHb / ΔSb: van't Hoff, 300-310 K
T1 construct: purchased Merck
Experimental: (§1) The binding affinities of complexes towards bovine serum albumin (BSA) and human serum albumin (HSA) were analyzed using the spectrofluorometric measurements on the Cary Eclipse MY2048CH03 instrument. The scan rate was set to 600 nm min^−1, with both slits being 5 nm. The excitation wavelength for BSA was set to 295 nm and for HSA to 280 nm. These wavelengths are characteristic of the tryptophan residues in the active pocket of proteins. The spectra were recorded from 310 to 500 nm. The concentration of both proteins was held constant at 5 × 10^−6 M, and prepared in 1 M phosphate buffer saline of pH 7.4.
(§2) The measurements were repeated at three temperatures (27, 32, and 37 °C) to mimic the body temperature and to allow for the calculation of the thermodynamic parameters of binding using the vant’t Hoff equation (Equation (2)):(2) lnKb=−ΔHb/RT+ΔSb/R where ΔHb, ΔSb, and ΔGb represent the change in the enthalpy, entropy, and free energy of the binding process, respectively.

[2] = target: T2, BSA (Bos taurus, UniProt P02769); experiment: Competitive spectrofluorometric measurements with warfarin; assay type: binding, bovine; conditions: for number of binding sites (n), competitive measurements with warfarin: BSA with equimolar warfarin; for BSA subdomain the complex binds to: concluded from competition with warfarin
T2 construct: purchased Merck
Experimental: as §1
The competitive measurements were performed in the presence of warfarin, a site-specific marker for BSA subdomain IIA [33]. The equimolar concentrations of BSA and warfarin were prepared (5 × 10^−6 M), and after 30 min of incubation, the titrations using the solutions of the investigated complexes were conducted. The final concentrations of the added complexes were the same as for the previous experiments.

[3] = tested on: MRC5 lung fibroblasts; experiment: MTT viability assay; assay type: cell-based, Human; conditions: 72 h
Experimental: (§3) Human cell lines (A375 melanoma, MCF-7 breast cancer, HCT116 colorectal carcinoma, A2780 ovarian cancer, and MRC5 lung fibroblasts) were purchased from American Type Culture Collection (Rockville, MD, USA).
(§4) The A2780 cells were cultivated in DMEM, while all of the other cell lines were cultivated in the HEPES-buffered RPMI-1640 medium. The cell culture mediums were supplemented with penicillin (100 units/mL), streptomycin (100 μg/mL), and 10% inactivated FBS. All of the cells were cultivated at 37 °C in a humidified atmosphere with 5% CO2.
(§5) The cells were seeded overnight in 96-well plates: A2780 and MRC-5 8 × 10^3 cells/well, HCT 116 6 × 10^3 cells/well, A375 5 × 10^3 cells/well, and MCF-7 at 10 × 10^3 cells/well [58]. All of the cells were treated with the following concentrations of investigated compounds: 100, 50, 25, 12.5, 6.25, 3.125, and 1.56 μM, except for the A2780 cells, which were treated with the following concentrations for the Cu compound only: 25, 12.5, 6.25, 3.125, 1.56, 0.78, and 0.39 μM. After 72 h of treatment, viability assays were conducted.

[4] = tested on: HCT116 colorectal carcinoma; experiment: MTT viability assay; assay type: cell-based, Human; conditions: 72 h
Experimental: as §3, §4, §5

[5] = tested on: A2780 ovarian cancer; experiment: MTT viability assay; assay type: cell-based, Human; conditions: 72 h
Experimental: as §3, §4, §5

[6] = tested on: A375 melanoma; experiment: MTT viability assay; assay type: cell-based, Human; conditions: 72 h
Experimental: as §3, §4, §5

[7] = tested on: MCF-7 breast cancer; experiment: MTT viability assay; assay type: cell-based, Human; conditions: MCF-7, MTT, 72 h
Experimental: as §3, §4, §5

[8] = tested on: MRC5 lung fibroblasts; experiment: CV viability assay; assay type: cell-based, Human; conditions: 72 h
Experimental: as §3, §4, §5

[9] = tested on: HCT116 colorectal carcinoma; experiment: CV viability assay; assay type: cell-based, Human; conditions: 72 h
Experimental: as §3, §4, §5

[10] = tested on: A2780 ovarian cancer; experiment: CV viability assay; assay type: cell-based, Human; conditions: 72 h
Experimental: as §3, §4, §5

[11] = tested on: A375 melanoma; experiment: CV viability assay; assay type: cell-based, Human; conditions: 72 h
Experimental: as §3, §4, §5

[12] = tested on: MCF-7 breast cancer; experiment: CV viability assay; assay type: cell-based, Human; conditions: MCF-7, CV, 72 h
Experimental: as §3, §4, §5

[13] = target: human serum albumin (HSA) (Homo sapiens, UniProt P02768); experiment: Spectrofluorometric titration, binding to HSA; conditions: for ΔHb / ΔSb: van't Hoff, 300-310 K
Experimental: as §1, §2

[14] = tested on: MCF-7 breast cancer; parameters: method as in PMID 36364539; conditions: MCF-7, MTT test; cited from earlier work

Sequence of human serum albumin (HSA) (P02768 25-609): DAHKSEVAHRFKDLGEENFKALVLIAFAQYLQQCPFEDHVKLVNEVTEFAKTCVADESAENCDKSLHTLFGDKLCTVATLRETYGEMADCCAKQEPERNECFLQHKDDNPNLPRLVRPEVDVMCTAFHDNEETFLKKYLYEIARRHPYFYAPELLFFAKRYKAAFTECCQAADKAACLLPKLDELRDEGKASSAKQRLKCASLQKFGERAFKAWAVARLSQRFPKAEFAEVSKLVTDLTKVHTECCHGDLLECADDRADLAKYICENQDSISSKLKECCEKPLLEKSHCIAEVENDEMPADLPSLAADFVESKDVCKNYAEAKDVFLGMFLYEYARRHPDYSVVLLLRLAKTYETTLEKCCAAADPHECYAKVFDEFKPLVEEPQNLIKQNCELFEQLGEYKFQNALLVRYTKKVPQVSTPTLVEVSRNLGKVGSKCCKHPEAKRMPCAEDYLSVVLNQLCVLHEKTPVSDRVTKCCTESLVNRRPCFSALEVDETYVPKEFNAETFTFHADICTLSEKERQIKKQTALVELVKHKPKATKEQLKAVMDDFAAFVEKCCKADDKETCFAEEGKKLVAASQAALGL
T1 sequence (P02769 25-607): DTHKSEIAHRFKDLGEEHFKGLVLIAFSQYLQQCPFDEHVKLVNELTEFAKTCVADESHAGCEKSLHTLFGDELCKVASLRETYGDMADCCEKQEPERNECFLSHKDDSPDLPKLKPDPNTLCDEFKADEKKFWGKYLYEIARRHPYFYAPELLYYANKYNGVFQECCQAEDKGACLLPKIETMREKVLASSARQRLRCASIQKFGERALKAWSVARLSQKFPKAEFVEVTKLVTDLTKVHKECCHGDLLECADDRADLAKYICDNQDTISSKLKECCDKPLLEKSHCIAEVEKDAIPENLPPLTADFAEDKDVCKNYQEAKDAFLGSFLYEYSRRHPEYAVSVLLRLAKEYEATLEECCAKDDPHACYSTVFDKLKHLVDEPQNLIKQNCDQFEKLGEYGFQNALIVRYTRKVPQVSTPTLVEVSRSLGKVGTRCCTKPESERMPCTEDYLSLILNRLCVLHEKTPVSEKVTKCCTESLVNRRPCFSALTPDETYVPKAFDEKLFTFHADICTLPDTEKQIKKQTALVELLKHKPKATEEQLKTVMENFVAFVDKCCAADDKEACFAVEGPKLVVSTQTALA
T2 sequence (P02769 25-607): as above

Row | Compound | n (number of binding places) ([1]; T 300 K) | ΔGb ([1]; T 300 K) | n (number of binding places) ([1]; T 305 K) | ΔGb ([1]; T 305 K) | n (number of binding places) ([1]; T 310 K) | ΔGb ([1]; T 310 K) | ΔHb [1] | number of binding sites (n), competitive measurements with warfarin [2] | BSA subdomain the complex binds to [2] | IC50 [3] | IC50 [4] | IC50 [5] | IC50 [6] | IC50 [7] | IC50 [8] | IC50 [9] | IC50 [10] | IC50 [11] | IC50 [12] | n (number of binding places) ([13]; T 300 K) | further results
1 | Cc1[nH+]cc(CO)c(C=NN=C(N)[S-])c1[O-].Cc1[nH+]cc(CO)c(C=NN=C(N)[S-])c1[O-].O.[Cl-].[Co+3] [Co-PLTSC] | 1.1 | -7.34 kcal/mol | 1.1 | -7.74 kcal/mol | 1.1 | -8.15 kcal/mol | 16.8 kcal/mol | 1.01 | subdomains IIA and IIB | > 100 µM | > 100 µM | > 100 µM | > 100 µM | > 100 µM | > 100 µM | > 100 µM | > 100 µM | > 100 µM | > 100 µM | 1.0 | Binding constant (Kb), competitive measurements with warfarin ([2]; BSA with equimolar warfarin (5 × 10^−6 M), 30 min incubation): 52500 M⁻¹; reduction percentages of the binding constants ([2]; BSA with warfarin vs without warfarin): 10%; ΔGb ([13]; T 300 K): -6.74 kcal/mol; n (number of binding places) ([13]; T 305 K): 1.0; ΔGb ([13]; T 305 K): -6.91 kcal/mol; n (number of binding places) ([13]; T 310 K): 1.0; ΔGb ([13]; T 310 K): -7.05 kcal/mol; ΔHb [13]: 3.04 kcal/mol; ΔSb [13]: 136 J mol^−1 K^−1
2 | Cc1[nH+]cc(CO)c(C=NNC(N)=S)c1[O-].O.[Cl-].[Cl-].[Cl-].[Fe+3] [Fe-PLTSC, [Fe(PLTSC)Cl2(H2O)]Cl] | 1.1 | -7.03 kcal/mol | 1.1 | -7.22 kcal/mol | 1.1 | -7.39 kcal/mol | 3.7 kcal/mol | 1.10 | subdomain IIIA | > 100 µM | > 100 µM | 86.3 ± 13.1 µM | > 100 µM | > 100 µM | > 100 µM | > 100 µM | 93.5 ± 9.2 µM | > 100 µM | > 100 µM | 1.2 | ΔSb [1]: 149 J mol^−1 K^−1; ΔGb ([13]; T 300 K): -8.08 kcal/mol; n (number of binding places) ([13]; T 305 K): 1.2; ΔGb ([13]; T 305 K): -8.46 kcal/mol; n (number of binding places) ([13]; T 310 K): 1.1; ΔGb ([13]; T 310 K): -8.82 kcal/mol; ΔHb [13]: 13.9 kcal/mol; ΔSb [13]: 307 J mol^−1 K^−1
3 | Cc1[nH+]cc(CO)c(C=NNC(N)=S)c1[O-].Cc1[nH+]cc(CO)c(C=NNC(N)=S)c1[O-].O.O=[N+]([O-])[O-].O=[N+]([O-])[O-].[Ni+2] [Ni-PLTSC, Ni-pyridoxal-thiosemicarbazone] | 1.2 | -9.97 kcal/mol | 1.2 | -9.8 kcal/mol | 1.2 | -9.66 kcal/mol | -19 kcal/mol | 1.30 | subdomain IIIA | > 100 µM | > 100 µM | > 100 µM | > 100 µM | > 100 µM | > 100 µM | > 100 µM | > 100 µM | > 100 µM | > 100 µM | 1.2 | ΔSb [1]: −126 J mol^−1 K^−1; ΔGb ([13]; T 300 K): -8.87 kcal/mol; n (number of binding places) ([13]; T 305 K): 1.2; ΔGb ([13]; T 305 K): -8.89 kcal/mol; n (number of binding places) ([13]; T 310 K): 1.2; ΔGb ([13]; T 310 K): -8.89 kcal/mol; ΔHb [13]: -7.5 kcal/mol; ΔSb [13]: 15.5 J mol^−1 K^−1
4 | N.N.[Cl][Pt][Cl] [cisplatin] |  |  |  |  |  |  |  |  |  |  |  |  |  |  |  |  |  |  |  |  | IC50 [14]: 33.6 ± 4.8 µM
